# Experimental data reported in patent US20240158392A1 (Janssen Biotech, Inc., priority 2021, published 2024).
# Molecular target: SIK2 (Homo sapiens, UniProt Q9H0K1)
# Assay: SIK2 Enzymatic Assay High Version 2 (High ATP)
# Format: biochemical
# Procedure, shortened: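 At room temperature, enzyme (6 nM, 2× final) was preincubated with compound for 30 min, then 6 mM ATP and 400 μM HDAC5tide (both 2× final) were added for 2 h. ADP formed was measured by ADP-Glo Max (2 h reagent, 1 h detection) using luminescence.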
# Chain of SIK2 (Q9H0K1 whole entry, species assumed): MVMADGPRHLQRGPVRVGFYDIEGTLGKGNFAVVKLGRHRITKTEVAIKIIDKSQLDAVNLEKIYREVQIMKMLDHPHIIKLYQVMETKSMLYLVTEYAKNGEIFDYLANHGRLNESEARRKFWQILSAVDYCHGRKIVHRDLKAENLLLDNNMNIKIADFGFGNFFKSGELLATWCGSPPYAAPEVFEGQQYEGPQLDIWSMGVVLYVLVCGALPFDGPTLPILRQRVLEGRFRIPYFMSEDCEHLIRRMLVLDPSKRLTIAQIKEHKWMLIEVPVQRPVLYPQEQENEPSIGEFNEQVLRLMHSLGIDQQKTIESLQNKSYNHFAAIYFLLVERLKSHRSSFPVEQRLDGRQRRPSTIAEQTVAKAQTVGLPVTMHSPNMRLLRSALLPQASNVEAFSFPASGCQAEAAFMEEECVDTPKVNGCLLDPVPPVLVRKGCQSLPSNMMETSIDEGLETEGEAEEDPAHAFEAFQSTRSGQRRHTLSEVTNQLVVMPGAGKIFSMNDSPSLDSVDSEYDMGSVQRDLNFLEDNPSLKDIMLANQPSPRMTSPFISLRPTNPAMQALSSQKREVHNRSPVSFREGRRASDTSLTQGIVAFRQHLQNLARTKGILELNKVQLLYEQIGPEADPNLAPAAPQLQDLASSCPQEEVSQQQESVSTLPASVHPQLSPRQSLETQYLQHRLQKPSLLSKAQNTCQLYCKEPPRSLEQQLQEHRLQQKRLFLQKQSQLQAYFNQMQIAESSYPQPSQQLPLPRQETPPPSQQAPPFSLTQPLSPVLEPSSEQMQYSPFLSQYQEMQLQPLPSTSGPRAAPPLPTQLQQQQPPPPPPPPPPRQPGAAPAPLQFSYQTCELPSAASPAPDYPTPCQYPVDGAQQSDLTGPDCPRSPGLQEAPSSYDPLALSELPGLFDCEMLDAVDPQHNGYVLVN
row,SMILES,IC50 [nM]
1,"Cc1cnc(Nc2cc3cc(-c4cc(C)ncc4O[C@H]4C[C@H]5COC[C@@H](C4)N5)ccn3n2)cn1 [Example 381, 5-[2-methyl-5-[[(1S,5R,7s)-3-oxa-9-azabicyclo[3.3.1]nonan-7-yl]oxy]-4-pyridyl]-N-(5-methylpyrazin-2-yl)pyrazolo[1,5-a]pyridin-2-amine]",< 0.847
2,"Cc1cc(-c2ccn3nc(Nc4cc(C)nc(C)n4)cc3c2)c(O[C@H]2C[C@H]3COC[C@@H](C2)N3)cn1 [Example 382, N-(2,6-dimethylpyrimidin-4-yl)-5-[2-methyl-5-[[(1S,5R,7s)-3-oxa-9-azabicyclo[3.3.1]nonan-7-yl]oxy]-4-pyridyl]pyrazolo[1,5-a]pyridin-2-amine]",< 0.847
3,"Cc1cc(-c2ccn3nc(Nc4ccc(C(=O)N(C)C)cn4)cc3c2)c(O[C@H]2C[C@H]3COC[C@@H](C2)N3)cn1 [Example 383, N,N-dimethyl-6-[[5-[2-methyl-5-[[(1S,5R,7s)-3-oxa-9-azabicyclo[3.3.1]nonan-7-yl]oxy]-4-pyridyl]pyrazolo[1,5-a]pyridin-2-yl]amino]pyridine-3-carboxamide]",0.947
4,"CCNC(=O)c1ccc(Nc2cc3cc(-c4cc(C)ncc4O[C@H]4C[C@H]5COC[C@@H](C4)N5)ccn3n2)nc1 [Example 384, N-ethyl-6-[[5-[2-methyl-5-[[(1S,5R,7s)-3-oxa-9-azabicyclo[3.3.1]nonan-7-yl]oxy]-4-pyridyl]pyrazolo[1,5-a]pyridin-2-yl]amino]pyridine-3-carboxamide]",0.889
5,"CCNC(=O)c1ccc(Nc2cc3cc(-c4cc(C)ncc4O[C@H]4C[C@H]5COC[C@@H](C4)N5)ccn3n2)nn1 [Example 385, N-ethyl-6-[[5-[2-methyl-5-[[(1S,5R,7s)-3-oxa-9-azabicyclo[3.3.1]nonan-7-yl]oxy]-4-pyridyl]pyrazolo[1,5-a]pyridin-2-yl]amino]pyridazine-3-carboxamide]",1.2
6,"CCNC(=O)c1cnc(Nc2cc3cc(-c4cc(C)ncc4O[C@H]4C[C@H]5COC[C@@H](C4)N5)ccn3n2)cn1 [Example 386, N-ethyl-5-[[5-[2-methyl-5-[[(1S,5R,7s)-3-oxa-9-azabicyclo[3.3.1]nonan-7-yl]oxy]-4-pyridyl]pyrazolo[1,5-a]pyridin-2-yl]amino]pyrazine-2-carboxamide]",1.31
7,"COCCNC(=O)c1ccc(Nc2cc3cc(-c4cc(C)ncc4O[C@H]4C[C@H]5COC[C@@H](C4)N5)ccn3n2)nc1 [Example 387, N-(2-methoxyethyl)-6-[[5-[2-methyl-5-[[(1S,5R,7s)-3-oxa-9-azabicyclo[3.3.1]nonan-7-yl]oxy]-4-pyridyl]pyrazolo[1,5-a]pyridin-2-yl]amino]pyridine-3-carboxamide]",1
8,"Cc1cc(-c2ccn3nc(Nc4ccc(C(=O)NC5CCOCC5)cn4)cc3c2)c(O[C@H]2C[C@H]3COC[C@@H](C2)N3)cn1 [Example 388, 6-[[5-[2-methyl-5-[[(1S,5R,7s)-3-oxa-9-azabicyclo[3.3.1]nonan-7-yl]oxy]-4-pyridyl]pyrazolo[1,5-a]pyridin-2-yl]amino]-N-tetrahydropyran-4-yl-pyridine-3-carboxamide]",1.03
9,"Cc1cc(-c2ccn3nc(Nc4ccc(C(=O)NCC(C)(C)C#N)cn4)cc3c2)c(O[C@H]2C[C@H]3COC[C@@H](C2)N3)cn1 [Example 389, N-(2-cyano-2-methyl-propyl)-6-[[5-[2-methyl-5-[[(1S,5R,7s)-3-oxa-9-azabicyclo[3.3.1]nonan-7-yl]oxy]-4-pyridyl]pyrazolo[1,5-a]pyridin-2-yl]amino]pyridine-3-carboxamide]",1.02
10,"Cc1cc(-c2ccn3nc(Nc4cnc(C(=O)NCC(C)(C)O)cn4)cc3c2)c(O[C@H]2C[C@H]3COC[C@@H](C2)N3)cn1 [Example 390, N-(2-hydroxy-2-methyl-propyl)-5-[[5-[2-methyl-5-[[(1S,5R,7s)-3-oxa-9-azabicyclo[3.3.1]nonan-7-yl]oxy]-4-pyridyl]pyrazolo[1,5-a]pyridin-2-yl]amino]pyrazine-2-carboxamide]",> 50000
11,"Cc1cnc(Nc2cc3cc(-c4cc(C)ncc4O[C@H]4C[C@H]5COC[C@@H](C4)N5)ccn3n2)nc1 [Example 391, 5-(5-(((1R,5S,7s)-3-oxa-9-azabicyclo[3.3.1]nonan-7-yl)oxy)-2-methylpyridin-4-yl)-N-(5-methylpyrimidin-2-yl)pyrazolo[1,5-a]pyridin-2-amine]",< 0.847
12,"Cc1cc(-c2ccn3nc(Nc4cnccn4)cc3c2)c(O[C@H]2C[C@H]3COC[C@@H](C2)N3)cn1 [Example 392, 5-[2-methyl-5-[[(1S,5R,7s)-3-oxa-9-azabicyclo[3.3.1]nonan-7-yl]oxy]-4-pyridyl]-N-pyrazin-2-yl-pyrazolo[1,5-a]pyridin-2-amine]",1.07
13,"Cc1cc(-c2ccn3nc(Nc4ccc(S(C)(=O)=O)cn4)cc3c2)c(O[C@H]2C[C@H]3COC[C@@H](C2)N3)cn1 [Example 393, 5-[2-methyl-5-[[(1R,5S,7s)-3-oxa-9-azabicyclo[3.3.1]nonan-7-yl]oxy]-4-pyridyl]-N-(5-methylsulfonyl-2-pyridyl)pyrazolo[1,5-a]pyridin-2-amine]",1.31
14,"Cc1cc(-c2ccn3nc(Nc4cccnn4)cc3c2)c(O[C@H]2C[C@H]3COC[C@@H](C2)N3)cn1 [Example 394, 5-[2-methyl-5-[[(1R,5S,7s)-3-oxa-9-azabicyclo[3.3.1]nonan-7-yl]oxy]-4-pyridyl]-N-pyridazin-3-yl-pyrazolo[1,5-a]pyridin-2-amine]",< 0.847
15,"Cc1cc(-c2ccn3nc(Nc4ccncn4)cc3c2)c(O[C@H]2C[C@H]3COC[C@@H](C2)N3)cn1 [Example 395, 5-[2-methyl-5-[[(1R,5S,7s)-3-oxa-9-azabicyclo[3.3.1]nonan-7-yl]oxy]-4-pyridyl]-N-pyrimidin-4-yl-pyrazolo[1,5-a]pyridin-2-amine]",0.851
16,"Cc1cc(Nc2cc3cc(-c4cc(C)ncc4O[C@H]4C[C@H]5COC[C@@H](C4)N5)ccn3n2)ncn1 [Example 396, 5-[2-methyl-5-[[(1R,5S,7s)-3-oxa-9-azabicyclo[3.3.1]nonan-7-yl]oxy]-4-pyridyl]-N-(6-methylpyrimidin-4-yl)pyrazolo[1,5-a]pyridin-2-amine]",1.1
17,"Cc1cc(-c2ccn3nc(Nc4cc(F)n(C)n4)cc3c2)c(O[C@H]2C[C@H]3COC[C@@H](C2)N3)cn1 [Example 397, N-(5-fluoro-1-methyl-pyrazol-3-yl)-5-[2-methyl-5-[[(1S,5R,7s)-3-oxa-9-azabicyclo[3.3.1]nonan-7-yl]oxy]-4-pyridyl]pyrazolo[1,5-a]pyridin-2-amine]",1.33
18,"Cc1cc(-c2ccn3nc(Nc4cn(C)nc4F)cc3c2)c(O[C@H]2C[C@H]3COC[C@@H](C2)N3)cn1 [Example 398, N-(3-fluoro-1-methyl-pyrazol-4-yl)-5-[2-methyl-5-[[(1S,5R,7s)-3-oxa-9-azabicyclo[3.3.1]nonan-7-yl]oxy]-4-pyridyl]pyrazolo[1,5-a]pyridin-2-amine]",< 0.847
19,"Cc1cc(-c2ccn3nc(Nc4nn(C)cc4F)cc3c2)c(O[C@H]2C[C@H]3COC[C@@H](C2)N3)cn1 [Example 399, N-(4-fluoro-1-methyl-pyrazol-3-yl)-5-[2-methyl-5-[[(1S,5R,7s)-3-oxa-9-azabicyclo[3.3.1]nonan-7-yl]oxy]-4-pyridyl]pyrazolo[1,5-a]pyridin-2-amine]",44.2
20,"Cc1cc(-c2ccn3nc(NC(=O)C4CC4)c(C)c3c2)c(O[C@H]2C[C@H]3COC[C@@H](C2)N3)cn1 [Example 400, N-[3-methyl-5-[2-methyl-5-[[(1S,5R,7s)-3-oxa-9-azabicyclo[3.3.1]nonan-7-yl]oxy]-4-pyridyl]pyrazolo[1,5-a]pyridin-2-yl]cyclopropanecarboxamide]",0.912
21,"Cc1cc(-c2ccn3nc(Nc4ccc(=O)n(C)n4)cc3c2)c(O[C@H]2C[C@H]3COC[C@@H](C2)N3)cn1 [Example 401, 2-methyl-6-[[5-[2-methyl-5-[[(1S,5R,7s)-3-oxa-9-azabicyclo[3.3.1]nonan-7-yl]oxy]-4-pyridyl]pyrazolo[1,5-a]pyridin-2-yl]amino]pyridazin-3-one]",16.1
22,"Cc1cc(-c2ccn3nc(Nc4ncccn4)cc3c2)c(O[C@H]2C[C@H]3COC[C@@H](C2)N3)cn1 [Example 402, 5-[2-methyl-5-[[(1S,5R,7s)-3-oxa-9-azabicyclo[3.3.1]nonan-7-yl]oxy]-4-pyridyl]-N-pyrimidin-2-yl-pyrazolo[1,5-a]pyridin-2-amine]",98.4
23,"Cc1cc(-c2ccn3nc(Nc4cc(C(F)(F)F)nn4C)cc3c2)c(O[C@H]2C[C@H]3COC[C@@H](C2)N3)cn1 [Example 403, 5-(5-(((1R,5S,7s)-3-oxa-9-azabicyclo[3.3.1]nonan-7-yl)oxy)-2-methylpyridin-4-yl)-N-(1-methyl-3-(trifluoromethyl)-1H-pyrazol-5-yl)pyrazolo[1,5-a]pyridin-2-amine]",14.3
24,"Cc1cc(-c2ccn3nc(Nc4ncc(F)cn4)cc3c2)c(O[C@H]2C[C@H]3COC[C@@H](C2)N3)cn1 [Example 404, N-(5-fluoropyrimidin-2-yl)-5-[2-methyl-5-[[(1S,5R,7s)-3-oxa-9-azabicyclo[3.3.1]nonan-7-yl]oxy]-4-pyridyl]pyrazolo[1,5-a]pyridin-2-amine]",58
25,"Cc1cc(-c2ccn3nc(N)cc3c2)c(O[C@H]2C[C@H]3COC[C@@H](C2)N3)cn1 [Example 405, 5-(5-(((1R,5S,7s)-3-oxa-9-azabicyclo[3.3.1]nonan-7-yl)oxy)-2-methylpyridin-4-yl)pyrazolo[1,5-a]pyridin-2-amine]",< 0.847
26,"Cc1cc(-c2ccn3nc(Nc4cccc(C(F)(F)F)n4)cc3c2)c(O[C@@H]2C[C@H]3COC[C@@H](C2)N3C)cn1 [Example 406, 5-[2-methyl-5-[[(1S,5R,7s)-9-methyl-3-oxa-9-azabicyclo[3.3.1]nonan-7-yl]oxy]-4-pyridyl]-N-[6-(trifluoromethyl)-2-pyridyl]pyrazolo[1,5-a]pyridin-2-amine]",1.83
